The text below walks through data of US4060634A (Boehringer Mannheim G.m.b.H., priority 1973, dated 1977).

The nature of data set [1]: Particle surface area (BET method). As to conditions: precipitated or ground glibenclamide product. The class given is physicochemical.
The subject of a further data set is blood sugar. As to conditions: cited from earlier work.
A short description of data set [2]: Solubility of glibenclamide in water. The class given is physicochemical.

Regarding `COc1ccc(Cl)cc1C(=O)NCCc1ccc(S(=O)(=O)NC(=O)NC2CCCCC2)cc1` [Example 5, glibenclamide], the particle surface area in data set [1] was 10.3 m^2 /g.
Same read-out and setting: for `COc1ccc(Cl)cc1C(=O)NCCc1ccc(S(=O)(=O)NC(=O)NC2CCCCC2)cc1` [Example 8, glibenclamide] the value was 5.8 m^2 /g; for `COc1ccc(Cl)cc1C(=O)NCCc1ccc(S(=O)(=O)NC(=O)NC2CCCCC2)cc1` [Example 1, glibenclamide], 5.79 m^2 /g.
For the compound `COc1ccc(Cl)cc1C(=O)NCCc1ccc(S(=O)(=O)NC(=O)NC2CCCCC2)cc1` [Example 6, glibenclamide], the particle surface area in data set [1] worked out at 5.2 m^2 /g.
As to `COc1ccc(Cl)cc1C(=O)NCCc1ccc(S(=O)(=O)NC(=O)NC2CCCCC2)cc1` [glibenclamide, N-4-[2-(5-chloro-2-methoxybenzamido)-ethyl]-phenyl-sulfonyl-N'-cyclohexylurea], the “blood sugar lowering action” value in the data set on blood sugar (among sulfonylurea derivatives) is “greatest hitherto known blood sugar lowering action”. In the data set on blood sugar (in vivo), the side effects result is recorded as “lowest degree of side effects”. In data set [2], the “solubility in water, pH of minimum” value was “reaches a minimum at a pH of 4”.
Compound `COc1ccc(Cl)cc1C(=O)NCCc1ccc(S(=O)(=O)NC(=O)NC2CCCCC2)cc1` [Example 7, glibenclamide] registered a particle surface area in data set [1] of 7.8 m^2 /g.
Turning to `COc1ccc(Cl)cc1C(=O)NCCc1ccc(S(=O)(=O)NC(=O)NC2CCCCC2)cc1` [Example 3, glibenclamide], the particle surface area in data set [1] is given as 6.0 m^2 /g.
As to `COc1ccc(Cl)cc1C(=O)NCCc1ccc(S(=O)(=O)NC(=O)NC2CCCCC2)cc1` [Example 2, glibenclamide], in data set [1], the particle surface area was found to be 9.8 m^2 /g.
`COc1ccc(Cl)cc1C(=O)NCCc1ccc(S(=O)(=O)NC(=O)NC2CCCCC2)cc1` [Example 4, glibenclamide]: the particle surface area in data set [1] is reported as 6.8 m^2 /g.
